Assays:
Bend.3 cells [1] = test: Albumin uptake assay; type: cell-based, mouse; settings: BECs, 1 μM, 30 minutes, vs media and vehicle
Description: Bend.3 cells grown on collagen coated coverslips were incubated with albumin-alexafluor 594 (50 mg/ml) (Invitrogen) and either media alone, DMSO vehicle, NECA (1 μM), or Lexiscan (1 μM) for 30 minutes. Albumin uptake was visualized (albumin=red) utilizing the Zeiss Axio Imager M1 fluorescent microscope. Total albumin fluorescence was recorded using Zeiss Axio Vision software, and measured utilizing Image-J software.

Bend.3 cells [2] = test: F-actin (phalloidin) staining of endothelial cells; type: cell-based, mouse; settings: BECs, 1 μM, 3 or 30 min, vs vehicle
Description: Bend.3 cells were grown (as described above) on circular cover slips in 24-well plates. Cells were treated for 3 or 30 min with 1 μM CCPA, 1 μM […], DMSO or media alone. Cover slips were washed with PBS, fixed in 4% paraformaldahyde, washed again in PBS and then permeabilized with 0.5% TritonX-100 in PBS. After washing in PBS/1% BSA, cover slips were blocked with 1% BSA then stained with Phallodin-Alexa 568. Cover slips were washed and mounted on slides with ProlongGold containing DAPI (Invitrogen). Images were obtained on an Olympus BX51 fluorescent microscope.

blood brain barrier [3] = test: Fluorescently labeled dextran extravasation into mouse brain (fluorimetry); type: in vivo, mice
Description: (§1) The adenosine receptor agonists NECA, CCPA, CGS 21860, and SCH 58261 (Tocris, Ellisville, Mo.) were each dissolved in DMSO then diluted in PBS to the desired concentration; in most cases final DMSO concentrations were <0.5% (vol/vol). Lexiscan (Regadenoson; TRC, Inc., Toronto) was dissolved in PBS. For vehicle controls, DMSO was diluted in PBS to the same concentration. Dehydrated dextrans labeled with either FITC or Texas Red (Invitrogen, Carlsbad, Calif.) were re-suspended in PBS to 10 mg/ml. All experiments involving dextran injection used 1.0 mg dextran in PBS. In experiments where drug and dextran were injected concomitantly, 1.0 mg of dextran was mixed with the drug to the desired concentration in a final volume of 200 μl. In dose-response experiments, drugs and dextrans were injected concomitantly. All injections, except injections of SCH 58261, were retro-orbital i.v. with a 27-gauge needle. In the SCH 58261 experiment, SCH 58261 injections, 1 mg/kg, were intraperitoneal and mice were pre-dosed with this concentration daily for 4 days prior to the day of the experiment. An additional injection was administered at the time of the experiment. Vehicle/drug and dextrans were injected on day 5 and tissues were collected 3 h after vehicle/drug administration. In Lexiscan experiments, Lexiscan was administered i.v. with 3 injections, 5 min apart and tissues were collected at 15 min unless otherwise indicated.
In dose-response experiments and experiments with the A1 AR and A2A AR knock-out mice, drugs and dextrans were injected concomitantly. After 3 h, the mice were anesthetized with ketamine/xylazine and subjected to a nose cone containing isoflurane. They were perfused with 25-50 ml ice-cold PBS through the left ventricle of the heart then decapitated. Their brains were removed, weighed and frozen for later analysis.
(§2) Ice-cold 50 mMTris-Cl (pH 7.6) was added to frozen brains (100 μl per 100 mg brain) and were to thawed on ice. They were homogenized with a dounce homogenizer and centrifuged at […] in a microfuge for 30 min at room temperature (rt). The supernatants were transferred to new tubes and an equal volume absolute methanol was added. The samples were centrifuged again at […] for 30 min at rt. Supernatant (200 μl) was transferred to a Corning costar 96 well black polystyrene assay plate (clear bottom). Additionally, a series of standards containing 0.001-10 pg/ml dextran in 50% Tris-Cl/50% absolute methanol (vol/vol) was added to each plate. Absolute concentrations of dextrans were derived from these standard curves. Fluorimetric analysis was performed on a BioTek (Winooski, Vt.) Synergy 4. FITC-dextran was detected at 488/519 (excitation/emission) and Texas Red-dextran was detected at 592/618.

blood brain barrier [4] = test: Fluorescently labeled dextran extravasation into rat brain (fluorimetry); type: in vivo; settings: rats
Description: as §1
as §2, with “Additionally, a series of standards containing 0.001-10 pg/ml dextran in 50% Tris-Cl/50% absolute methanol (vol/vol) was added to each plate. Absolute concentrations of dextrans were derived from these standard curves. Fluorimetric analysis was performed on a BioTek (Winooski, Vt.) Synergy 4.” left out

Bend.3 cells [5] = test: Transendothelial cell electrical resistance (TEER) assay; type: cell-based; settings: mouse BEC monolayers, 1 μM, vs vehicle or media alone
Description: Bend.3 cells were grown in ATCC-formulated DMEM supplemented with 10% FBS on 24-well transwell inserts, 8 μm pore size (BD Falcon, Bedford, Mass.) until a monolayer was established. TEER was assessed using a Voltohmeter (EVOMX, World Precision Instruments, Sarasota, Fla.). Background resistance from un-seeded transwells was subtracted from recorded values to determine absolute TEER values. Change in absolute TEER from T0 for each individual transwell was expressed as percentage change and then averaged for each treatment group.

Bend.3 cells [6] = test: Tight junction molecule staining (ZO-1, Claudin-5, Occludin); type: cell-based, mouse; settings: 1 μM, 1 h
Description: Bend.3 cells grown on collagen coated coverslips were incubated with DMSO vehicle, NECA (1 μM), or Lexiscan (1 μM) for 1 h. Cells were washed with PBS, fixed with 4% paraformaldehyde, and permeabilized with 0.5% Triton-X in PBS. Cells were blocked with PBS/BSA/goat serum and then stained with antibodies (Invitrogen) against either ZO-1 (1A12), Claudin-5 (34-1600), or Occludin (3F10). Following a wash step, cells were incubated with either goat anti-rabbit IgTexas Red-X or goat anti-mouse IgCy5 (Invitrogen). Cover slips were washed and mounted on slides with ProlongGold containing DAPI. Images were obtained on a Zeiss Axio Imager M1 fluorescent microscope.

[7] = mice, single i.v. injection (0.05 mg/kg)

In the case of CNC(=O)c1cnn(-c2nc(N)c3ncn([C@@H]4O[C@H](CO)[C@@H](O)[C@H]4O)c3n2)c1 [Lexiscan], the “rate of fluorescently-labeled albumin uptake” value (Bend.3 cells [1]) is reported as “did not affect the rate of fluorescently-labeled albumin uptake”, the “actinomyosin stress fiber formation” value (Bend.3 cells [2]) is reported as “marked induction of actinomycin stress fibers” and the “magnitude of increased BBB permeability compared with NECA” value (blood brain barrier [3]; i.v. administration) is reported as “much greater than the magnitude of increased permeability after NECA administration”. The “BBB permeability to 10,000 Da dextrans” value (blood brain barrier [3]; mice, i.v. administration) was “increase BBB permeability to 10,000 Da dextrans”, the “time by which BBB permeability returned to baseline” value (blood brain barrier [3]; [7]) was at most 180 min and the “time of maximum increased BBB permeability” value (blood brain barrier [3]; [7]) was 30 min. The “time after which FITC-dextran was detectable in the brain” value (blood brain barrier [3]; mice, single injection) was 5 min, the “labeled-dextran levels in brain” value (blood brain barrier [4]; 3 injections over 15 min) was “dramatically high levels of labeled-dextran” and the “increase in labeled-dextran, multiple doses compared to single injections” value (blood brain barrier [4]; 3 injections vs single injection) was “more than 20 fold”. The BBB permeability (blood brain barrier [4]; i.v. administration) was “increased BBB permeability in rats”, the TEER (Bend.3 cells [5]) was “decreases in TEER” and the “ZO-1 and claudin-5 expression” value (Bend.3 cells [6]) was “discreet alterations in ZO-1 and claudin-5”. The occludin expression (Bend.3 cells [6]) was “severely diminished occludin expression”.
